According to patent US20040023884A1, “Biologically active peptides from functional domains of bactericidal/permeability-increasing protein and uses thereof” (priority 1993, published 2004):

What was measured:
[1] = system: ATIII/heparin complexes; assay: Thrombin inactivation by ATIII/heparin complexes (Chromostrate anti-thrombin assay); format: biochemical; details: 1.0 to 100 μg/mL
Protocol: BPI functional domain peptides BPI.2, BPI.3, BPI.4, BPI.5, BPI.6, and BPI.8, along with rBPI23 as a positive control, were assayed for their effect on thrombin inactivation by ATIII/heparin complexes according to the method of Example 3 in copending and co-assigned U.S. patent application Ser. No. 08/093,202, filed Jul. 15, 1993, incorporated by reference. Specifically, a Chromostrate™ anti-thrombin assay kit (Organon Teknika Corp., Durham, N.C.) was used to examine the inhibition of purified thrombin by preformed ATIII/heparin complexes in plasma.
Briefly, the assay was performed in 96 well microtiter plates in triplicate with a final volume per well of 200 μL. Varying concentrations of the BPI functional domain peptides ranging from 1.0 μg/mL to 100 μg/mL were assayed to determine their effect on thrombin inhibition in the presence of pre-formed ATIII/heparin complexes. The order of addition of assay components was as follows: 1) a dilution series of rBPI23 or BPI functional domain peptides or thaumatin as a control protein, with final concentrations of 100, 50, 25, 10 and 1 μg/well, diluted in PBS in a final volume of 50 μL; 2) 50 μL plasma diluted 1:100 in a buffer supplied by the manufacturer, 3) 50 μl thrombin at 1 nKat/mL in a buffer supplied by the manufacturer, and 4) 50 μL chromogenic substrate at a concentration of 1 μmol/mL in water. The reaction was allowed to proceed for 10 minutes at 37° C. and stopped with the addition of 50 μL 0.1M citric acid. The colorimetric reaction was quantitated on a microplate reader as described in Example 3.

[2] = 3H-heparin binding assay (affinity and capacity); details: for Heparin Capacity: heparin bound at saturation; for Kd: read-out: Heparin Affinity
Procedure, shortened: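 Peptide fragments were bound to PVDF-membrane wells and incubated with 3H-heparin in blocking buffer for 1 h at 4 °C. After washing, bound radioactivity was quantified by liquid scintillation counting, with BSA background subtracted; rBPI23 served as positive control.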

[3] = In vivo APTT in heparinized rats; set-up: species or system Sprague-Dawley rats; details: 100 U/kg heparin i.v., test protein 5 minutes later, blood 2 minutes after
Protocol: The in vivo effect of exemplary BPI combination peptides on APTT in heparinized rats was determined and compared with the in vivo effect of rBPI23. APTT is lengthened by the presence of endogenous or exogenous inhibitors of thrombin formation, such as therapeutically administered heparin. Agents which neutralize the anti-coagulant effects of heparin will reduce the APTT as measured by this test. Sprague-Dawley rats housed under NIH guidelines were administered with 100 U/kg heparin by bolus intravenous injections via the animals' tail vein followed 5 minutes later by administration of varying amounts of test or control protein as compared with rBPI23. The APTT was then determined from blood samples collected from the abdominal aorta 2 minutes after the administration of the test or control protein. The APTT of untreated animals, as well as animals treated only with a BPI peptide, was also determined.

[4] = system: endotoxin (e.g. E. coli 01:B4); assay: Mouse experimental endotoxemia model; set-up: species or system mice; details: in vivo
Protocol: BPI functional domain peptides are tested for their efficacy in a mouse experimental endotoxemia model. Groups of at least 15 mice are administered an intravenous injection of endotoxin (e.g. E. coli 01:B4, Sigma Chemical Co., St. Louis, Mo.) at a LD90 dosage (e.g., 40 mg/kg). This is followed by a second intravenous injection of the test peptide in varying concentrations from about 0.1 mg/kg to about 100 mg/kg, preferably in the range of about 1 to 50 mg/kg. Injections of buffer without added peptide are used in negative control mice. The animals are observed for 7 days and mortality recorded. The efficacy of the peptides of this invention is measured by a decrease in endotoxemia-associated mortality in peptide-injected mice as compared with control mice.

[5] = system: Staphylococcus aureus; assay: Radial diffusion bactericidal assay, Staphylococcus aureus; format: cell-based; details: radial diffusion; PROBIT analysis; S. aureus
[6] = system: rough mutant E. coli J5 bacteria; assay: Radial diffusion bactericidal assay, E. coli J5; format: cell-based; details: radial diffusion; PROBIT analysis; E. coli J5 (rough)
Procedure, shortened: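 Wells received 5 or 10 μL of BPI fragment, pre-incubated 3 h at 37 °C. The underlayer agarose carried washed log-phase organisms at 4×10^6 CFU/mL.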

[7] = system: E. coli 0111:B4 (smooth) bacteria; assay: Radial diffusion bactericidal assay, E. coli 0111:B4; format: cell-based; details: radial diffusion; PROBIT analysis; E. coli O111:B4 (smooth)
[8] = system: E. coli 0113 LPS; assay: Limulus Amoebocyte Lysate (LAL) inhibition assay; format: biochemical; details: alanine variant relative to BPI.2
Procedure, shortened: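 BPI proteolytic fragments incubated with E. coli 0113 LPS (4 ng/mL final) for 3 h at 37 °C, then diluted in D-PBS to 200 pg/mL LPS for chromogenic LAL. Lysate 25 min, substrate 20–30 min at room temperature, acetic acid stop; OD405 expressed as percent LPS inhibition.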

[9] = system: E. coli O86a:K61; assay: Radial diffusion bactericidal assay, E. coli O86a:K61; format: cell-based; details: FIG. 11i

Substance	heparin neutralization effect (in words) [1]	cpm ^3H-Heparin bound ([2]; 100 picomoles of each fragment per well, saturating 3H-heparin 20 μg/mL, mean of duplicate wells ± range)	APTT in heparinized rats (in words) [3]	activity in the murine endotoxemia model (in words) [4]	pmol added to well to achieve a 30 mm^2 bactericidal zone, S. aureus [5]	pmol added to well to achieve a 30 mm^2 bactericidal zone, E. coli J5 [6]	Heparin Capacity [2]	Kd [2]	pmol added to well to achieve a 30 mm^2 bactericidal zone, E. coli O111:B4 [7]	LAL (relative difference) [8]	bactericidal activity (in words) [9]
thaumatin [reference compound]	no neutralizing effect	7,432 ± 83 cpm	no effect on APTT times in heparinized animals	–	–	–	–	–	–	–	–
KWKAQFRFLKKSKVGWLILLFHKK [BPI.102]	–	–	–	active in this murine model	b (no detectable activity up to 5 μg/well)	13,814.12 pmol	535.2 ng	4610 nM	697,655.78 pmol	–	–
IKISGKWKAAKRFLK [BPI.23]	–	–	–	–	–	1,330.40 pmol	285.0 ng	693 nM	14,445.00 pmol	= (no difference in the LAL assay)	showed bactericidal activity
